Test results from patent publication US9834548B2, “Pyridazine compounds as JAK inhibitors” (Portola Pharmaceuticals, Inc., priority 2014, dated 2017).

Legend:
Assay type in all cases: biochemical
JAK3 = JAK3 (Homo sapiens (Human), UniProt P52333); experiment: Purified kinase assay (Z'-LYTE), JAK3; conditions: Table 1; read-out: JAK3 IC50
Experimental: (§1) JAK and TYK2 tyrosine phosphorylation activity is measured using the Z′-LYTE™ Technology developed by Invitrogen Corporation (Carlsbad, Calif.). For JAK1, JAK2 and JAK3 the Z′-LYTE™ Kinase Assay Kit-Tyr6 Peptide (part number PV4122) was used. For TYK2 the Z′-LYTE™ Kinase Assay Kit-Tyr6 Peptide (part number PV3192) was used. The Z′-LYTE™ biochemical assay employs a fluorescence resonance energy transfer (FRET) coupled-enzyme format and is based on the differential sensitivity of phosphorylated and non-phosphorylated peptides to proteolytic cleavage. The assay uses a synthetic peptide substrate that is labeled with a donor fluorophore (coumarin) and an acceptor fluorophore (fluorescein) that make up a FRET pair. In the primary reaction (the Kinase Reaction), the kinase transfers the γ-phosphate of ATP to a single tyrosine residue on the substrate, while the presence of a kinase inhibitor in the primary reaction suppresses phosphorylation. In the secondary reaction (the Development Reaction), a site-specific protease (the Development Reagent) is added. The development buffer quenches the Kinase Reaction, while the protease recognizes and cleaves non-phosphorylated Z′-LYTE™ peptide substrate. Cleavage disrupts FRET between the donor and acceptor fluorophores on the non-phosphorylated substrate, while uncleaved, phosphorylated substrate maintains FRET.
(§2) To test the ability of candidate molecules to inhibit JAK tyrosine phosphorylation activity, molecules are reconstituted in 100% DMSO and serially diluted 1:10 in polypropylene v-bottom microtiter plates. The candidate molecules are then diluted 1:25 into kinase buffer and 2.5 μl transferred into duplicate wells of a 384 well low volume black microtiter assay plate (Corning, USA). The final DMSO concentration in the assay is 1%. The kinase reaction contains 2.5 μl of a candidate molecule, 5 μl of catalytic domain recombinant Kinase enzyme+Tyr peptide substrate (Invitrogen, CA) and ATP (Invitrogen, CA). The kinase reaction is allowed to proceed for 1 hour at room temperature. The protease reaction is initiated by the addition of Development Reagent (Invitrogen, CA). After 1 hour incubation at room temperature the fluorescence is measured using a FlexStation plate reader (Molecular Devices, Sunnyvale, Calif.). The reader settings used are as follows: Fluorescence mode, endpoint, top read, excitation 400 nm, emission 445 nm and 520 nm, Auto Cutoff 435 nm and 515 nm, PMT sensitivity high, 6 reads per well Inhibition of JAK activity is calculated as the percent phosphorylation of substrate in the presence of inhibitor compared to the percent phosphorylation of substrate in the absence of inhibitor. IC50's were derived using Xlfit 4.3 (IDBS, UK), 4 parameter logistic model 205: Y=(A+((B−A)/(1+((C/x)^D)))).

JAK2 = JAK2 (Homo sapiens (Human), UniProt O60674); experiment: Purified kinase assay (Z'-LYTE), JAK2; conditions: Table 1; read-out: JAK2 IC50
Chain of JAK2 (O60674 849-1124): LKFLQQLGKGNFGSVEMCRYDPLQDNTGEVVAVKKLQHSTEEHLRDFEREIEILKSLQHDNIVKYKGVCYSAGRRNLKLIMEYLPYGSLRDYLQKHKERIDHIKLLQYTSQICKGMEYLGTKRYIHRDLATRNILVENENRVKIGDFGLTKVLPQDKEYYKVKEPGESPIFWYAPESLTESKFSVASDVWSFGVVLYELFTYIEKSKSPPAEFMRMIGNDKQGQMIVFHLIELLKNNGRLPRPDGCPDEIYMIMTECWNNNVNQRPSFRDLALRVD
Experimental: as §1, §2

JAK1 = JAK1 (Homo sapiens (Human), UniProt P23458); experiment: Purified kinase assay (Z'-LYTE), JAK1; conditions: Table 1; read-out: JAK1 IC50
Chain of JAK1 (P23458 875-1153): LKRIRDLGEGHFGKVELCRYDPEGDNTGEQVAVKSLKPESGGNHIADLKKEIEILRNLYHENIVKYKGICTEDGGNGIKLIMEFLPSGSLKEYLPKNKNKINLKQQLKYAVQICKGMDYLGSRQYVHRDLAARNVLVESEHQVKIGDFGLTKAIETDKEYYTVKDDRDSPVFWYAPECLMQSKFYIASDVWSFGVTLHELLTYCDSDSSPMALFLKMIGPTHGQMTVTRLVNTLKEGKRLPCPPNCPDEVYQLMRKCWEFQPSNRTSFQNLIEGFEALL
Experimental: as §1, §2

Chain of JAK3 (P52333 822-1111): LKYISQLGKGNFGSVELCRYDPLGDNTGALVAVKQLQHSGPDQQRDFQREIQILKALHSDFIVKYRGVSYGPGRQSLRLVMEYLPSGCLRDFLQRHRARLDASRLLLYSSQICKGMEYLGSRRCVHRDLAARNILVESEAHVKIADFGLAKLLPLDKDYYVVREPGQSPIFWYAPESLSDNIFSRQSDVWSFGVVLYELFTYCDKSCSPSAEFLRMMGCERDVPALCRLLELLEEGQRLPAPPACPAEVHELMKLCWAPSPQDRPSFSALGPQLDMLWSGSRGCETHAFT

Structure (SMILES)	IC50 (JAK3) [nM]	IC50 (JAK2) [nM]	IC50 (JAK1) [nM]
CC(=O)N1CCC(Cn2cc(Nc3cc(NCc4cccc(F)c4)c(C(N)=O)nn3)cn2)CC1 [Compound 127]	10 to 100	100 to 1000	> 1000
NC(=O)c1nnc(Nc2ccc(OCCN3CCCC3)cc2)cc1NCc1cccc(F)c1 [Compound 51]	10 to 100	100 to 1000	> 1000
CCC(=O)N1CCC(c2ccc(Nc3cc(NCc4cc(F)cc(F)c4)c(C(N)=O)nn3)cc2)CC1 [Compound 27]	10 to 100	> 1000	> 1000
CC(=O)N1CCN(c2ccc(Nc3cc(NCc4ccc(Cl)s4)c(C(N)=O)nn3)cc2)CC1 [Compound 76]	10 to 100	> 1000	> 1000
CC(=O)N1CCN(c2ccc(Nc3cc(NC4CCCCC4)c(C(N)=O)nn3)cc2)CC1 [Compound 8, 6-((4-(4-acetylpiperazin-1-yl)phenyl)amino)-4-(cyclohexylamino)pyridazine-3-carboxamide]	10 to 100	100 to 1000	100 to 1000
CCn1cc(Nc2cc(NCc3cccc(F)c3F)c(C(N)=O)nn2)cn1 [Compound 120]	10 to 100	100 to 1000	> 1000
CC(C)n1cc(Nc2cc(NCc3cccc(F)c3)c(C(N)=O)nn2)cn1 [Compound 106]	10 to 100	100 to 1000	> 1000
CCC(=O)N1CCN(c2ccc(Nc3cc(NCc4cccc5[nH]ccc45)c(C(N)=O)nn3)cc2)CC1 [Compound 110]	1 to 10	10 to 100	10 to 100
CC(=O)N1CCN(c2ccc(Nc3cc(NCC4CCC4)c(C(N)=O)nn3)cc2)CC1 [Compound 16]	10 to 100	100 to 1000	> 1000
NC(=O)c1nnc(Nc2ccc(C(=O)N3CCOCC3)cc2)cc1NCc1cccc(F)c1 [Compound 80]	10 to 100	100 to 1000	> 1000
NC(=O)c1nnc(Nc2ccc(N3CCOCC3)cc2)cc1NCc1cc(F)cc(F)c1 [Compound 36]	10 to 100	100 to 1000	> 1000
CCC(=O)N1CCN(c2ccc(Nc3cc(NCc4cccc(F)c4)c(C(N)=O)nn3)cc2)CC1 [Compound 30]	10 to 100	100 to 1000	> 1000
CC(c1ccc(Nc2cc(NCc3cccc(F)c3)c(C(N)=O)nn2)cc1)S(C)(=O)=O (stereo not drawn) [Compound 96]	10 to 100	100 to 1000	100 to 1000
CC(C)n1cc(Nc2cc(NCc3c(F)cccc3F)c(C(N)=O)nn2)cn1 [Compound 113]	1 to 10	10 to 100	100 to 1000
C[S+]([O-])Cc1ccc(Nc2cc(NCc3cccc(F)c3)c(C(N)=O)nn2)cc1 (stereo not drawn) [Compound 105]	10 to 100	100 to 1000	100 to 1000
CC(=O)N1CCN(c2ccc(Nc3cc(NCc4cccc(F)c4)c(C(N)=O)nn3)cn2)CC1 [Compound 49]	100 to 1000	> 1000	> 1000
CC(=O)N1CCN(c2ccc(Nc3cc(NC4CCN(c5ccc(C#N)cn5)CC4)c(C(N)=O)nn3)cc2)CC1 [Compound 92]	10 to 100	10 to 100	10 to 100
CCC(=O)N1CCC(Cn2cc(Nc3cc(NCc4cccc5ccsc45)c(C(N)=O)nn3)cn2)CC1 [Compound 128]	1 to 10	10 to 100	100 to 1000
CC(=O)N1CCN(c2ccc(Nc3cc(NCc4cccc(-c5ccccn5)c4)c(C(N)=O)nn3)cc2)CC1 [Compound 71]	100 to 1000	> 1000	> 1000
CCn1cc(Nc2cc(NCc3cccc4ccsc34)c(C(N)=O)nn2)cn1 [Compound 122]	1 to 10	10 to 100	100 to 1000

Structure (SMILES)	IC50 (JAK3) [nM]	IC50 (JAK2) [nM]	IC50 (JAK1) [nM]
CC(=O)N1CCN(c2ccc(Nc3cc(NCC4CCNCC4)c(C(N)=O)nn3)cc2)CC1 [Compound 63]	100 to 1000	> 1000	> 1000
NC(=O)c1nnc(Nc2ccc(N3CCOCC3)cc2)cc1NC1CCC1 [Compound 6, 4-(cyclobutylamino)-6-((4-morpholinophenyl)amino)pyridazine-3-carboxamide]	100 to 1000	100 to 1000	> 1000
CS(=O)(=O)Cc1ccc(Nc2cc(NCc3cc(F)ccc3F)c(C(N)=O)nn2)cc1 [Compound 88]	1 to 10	100 to 1000	100 to 1000
CCC(=O)N1CCC(c2ccc(Nc3cc(NCc4cccc(F)c4)c(C(N)=O)nn3)cc2)CC1 [Compound 26]	10 to 100	> 1000	> 1000
Cc1cc(Nc2cc(NCc3cccc(F)c3F)c(C(N)=O)nn2)ccc1N1CCOCC1 [Compound 40]	10 to 100	> 1000	> 1000
CC(=O)N1CCC(Cn2cc(Nc3cc(NCc4cccc(F)c4F)c(C(N)=O)nn3)cn2)CC1 [Compound 126]	1 to 10	100 to 1000	> 1000
COC(=O)N(C)c1ccc(Nc2cc(NCc3cccc(F)c3F)c(C(N)=O)nn2)cc1 [Compound 45]	10 to 100	> 1000	> 1000
CC(=O)N1CCN(c2ccc(Nc3cc(NCc4cccnc4)c(C(N)=O)nn3)cc2)CC1 [Compound 79]	100 to 1000	> 1000	> 1000
CC(C)n1cc(Nc2cc(NCc3cccc(F)c3F)c(C(N)=O)nn2)cn1 [Compound 114]	10 to 100	100 to 1000	100 to 1000
CN(C)C(=O)C1CCN(c2ccc(Nc3cc(NCc4cccc(F)c4)c(C(N)=O)nn3)cc2)CC1 [Compound 90]	10 to 100	100 to 1000	> 1000
CC(=O)N1CCN(c2ccc(Nc3cc(NC4CCCC4)c(C(N)=O)nn3)cc2)CC1 [Compound 10]	100 to 1000	100 to 1000	100 to 1000
COc1ccccc1CNc1cc(Nc2ccc(N3CCN(C(C)=O)CC3)cc2)nnc1C(N)=O [Compound 24]	10 to 100	10 to 100	100 to 1000
CC(=O)N1CCN(c2ccc(Nc3cc(NCC(C)C)c(C(N)=O)nn3)cc2)CC1 [Compound 14]	100 to 1000	100 to 1000	> 1000
NC(=O)c1nnc(Nc2cccc(CN3CCOCC3)c2)cc1NCc1cccc(F)c1 [Compound 48]	10 to 100	100 to 1000	> 1000
NC(=O)c1nnc(Nc2cccc(N3CCOCC3)n2)cc1NCc1cccc(F)c1 [Compound 62]	> 1000	> 1000	> 1000
NC(=O)c1nnc(Nc2ccc(N3CCNCC3)nc2)cc1NCc1cccc(F)c1 [Compound 50]	100 to 1000	> 1000	> 1000
CS(=O)(=O)Cc1ccc(Nc2cc(NCc3cccc4ccsc34)c(C(N)=O)nn2)cc1 [Compound 100]	1 to 10	100 to 1000	100 to 1000
NC(=O)c1nnc(Nc2ccc3c(c2)CS(=O)(=O)C3)cc1NCc1cccc(F)c1 [Compound 107]	10 to 100	100 to 1000	> 1000
NC(=O)c1nnc(Nc2ccc(N3CCOCC3)c(F)c2)cc1NCc1cccc(F)c1F [Compound 43]	10 to 100	> 1000	> 1000
NC(=O)c1nnc(Nc2ccc(N3CCNCC3)cc2)cc1NC1CCCC1 [Compound 13]	100 to 1000	100 to 1000	> 1000
